{
  "source": "patent US8334286B2",
  "about": "“Substituted pyrrolo[1,2-A] pyrazines, compositions containing these, processes of making these, and uses thereof” (Neurotune AG, priority 2008, dated 2012)",
  "key": {"[1]": {"system": "paclitaxel-induced hyperalgesia", "assay": "Paclitaxel-induced hyperalgesia in the rat (paw-pressure test)", "type": "in vivo", "settings": "PCT-treated rats, 3 mg/kg i.v., mean ± S.E.M.", "procedure": "In all methods, paw mechanical sensitivity was determined using either the paw pressure test or the incapacitance test. The paw pressure test utilizes a Randall & Selitto apparatus, exerting a force that increases at constant rate (32 g/s). The stimulus at which rats withdrawn the paw was evaluated before and at different times after treatment. Results represent the mean of mechanical thresholds expressed as grams. To avoid any possible damage to the animal paw the maximum applied force was fixed at 240 g. Peripheral neuropathy is induced by repeated administration of vincristine, paclitaxel or oxaliplatin to adult male Sprague-Dawley rats (150-200 g, supplier Harlan). The following protocols were used respectively: • Vincristine: the drug was injected by intravenous route at the dose of 150 μg/kg. The treatment was performed every 2 days, for 5 times, until a cumulative dose of 750 μg/kg was reached. Paw pressure test was performed 4 days after the last injection (Marchand F. et al. 2003, Brain Res. 980:117-120). • Paclitaxel: paclitaxel (PCT) neuropathy was induced by intraperitoneal administration of 0.5 mg/kg once a day, on days 1, 3, 5 and 8. Cumulative paclitaxel dose was 2 mg/kg. The pharmacological test was performed 14-18 days after the last paclitaxel injection (Polomano R. C. et al. 2001, Pain 94:293-304). • Oxaliplatin: 2.4 mg/kg were injected by intraperitoneal route for 5 consecutive days followed by 2 days suspension (one cicle). A total of 3 cycles was performed, reaching a cumulative dose of 36 mg/kg (Cavaletti G. 2001, Eur. J. Cancer 37:2457-2463). The test was performed 48 h after the last oxaliplatin injection. 2. Osteoarthritic Pain"}, "[2]": {"system": "MIA-induced hyperalgesia", "assay": "MIA-induced hyperalgesia in the rat (paw-pressure test), osteoarthritic pain", "type": "in vivo", "settings": "MIA-treated rats, mean ± S.E.M.", "procedure": "In all methods, paw mechanical sensitivity was determined using either the paw pressure test or the incapacitance test. The paw pressure test utilizes a Randall & Selitto apparatus, exerting a force that increases at constant rate (32 g/s). The stimulus at which rats withdrawn the paw was evaluated before and at different times after treatment. Results represent the mean of mechanical thresholds expressed as grams. To avoid any possible damage to the animal paw the maximum applied force was fixed at 240 g. Osteoarthritis was induced by a single administration of 2 mg (in a volume of 25 μl) of monosodium iodoacetate (MIA) into the left knee joint of anaesthetized rats (male adult Sprague Dawley rats, 150-200 g, supplier Harlan) (Fernihough J. 2004, Pain 112:83-93). This treatment induces the progressive degeneration of the joint and the development of hyperalgesia, mimicking at the histological and behavioral levels what observed in humans. Pharmacological test was performed 7 days after treatment."}, "[3]": {"system": "MIA-induced hyperalgesia", "assay": "MIA-induced hyperalgesia in the rat (incapacitance test), osteoarthritic pain", "type": "in vivo", "settings": "MIA-treated rats, grams of the right paw, mean ± S.E.M.", "procedure": "In all methods, paw mechanical sensitivity was determined using either the paw pressure test or the incapacitance test. […] Osteoarthritis was induced by a single administration of 2 mg (in a volume of 25 μl) of monosodium iodoacetate (MIA) into the left knee joint of anaesthetized rats (male adult Sprague Dawley rats, 150-200 g, supplier Harlan) (Fernihough J. 2004, Pain 112:83-93). This treatment induces the progressive degeneration of the joint and the development of hyperalgesia, mimicking at the histological and behavioral levels what observed in humans. Pharmacological test was performed 7 days after treatment."}, "[4]": {"settings": "3 mg/kg i.v., 15 min after treatment"}, "[5]": {"settings": "3 mg/kg i.v., 30 min after treatment"}, "[6]": {"settings": "3 mg/kg i.v., 45 min after treatment"}, "[7]": {"settings": "before treatment (basal), group 3 mg/kg i.v."}},
  "data": [
    {"compound": "O=C1CC[C@@H]2CN(S(=O)(=O)c3ccccc3C(F)(F)F)CCN12", "note": "[Example 8, (R)-(+)-2-(2-(trifluoromethyl)phenylsulfonyl) hexahydropyrrolo [1,2-a]pyrazin-6(7H)-one]", "values": [
      {"measurement": "Mechanical threshold (g), After Treatment 15 min", "setting": "[1]; 15 min after treatment", "result": "42.2 ± 3.0", "unit": "g"},
      {"measurement": "Mechanical threshold (g), After Treatment 30 min", "setting": "[1]; 30 min after treatment", "result": "39.3 ± 3.2", "unit": "g"},
      {"measurement": "Mechanical threshold (g), After Treatment 45 min", "setting": "[1]; 45 min after treatment", "result": "37.5 ± 3.2", "unit": "g"},
      {"measurement": "Mechanical threshold (g), After Treatment 15 min", "setting": "[2]; [4]", "result": "59.4 ± 1.6", "unit": "g"},
      {"measurement": "Mechanical threshold (g), After Treatment 30 min", "setting": "[2]; [5]", "result": "63.8 ± 2.6", "unit": "g"},
      {"measurement": "Mechanical threshold (g), After Treatment 45 min", "setting": "[2]; [6]", "result": "50.2 ± 3.7", "unit": "g"},
      {"measurement": "Mechanical threshold (g), Before Treatment basal", "setting": "[2]; [7]", "result": "22.6 ± 2.0", "unit": "g"},
      {"measurement": "Weight borne on right hind paw", "setting": "[3]; [4]", "result": "119.0 ± 7.5", "unit": "g"},
      {"measurement": "Weight borne on right hind paw", "setting": "[3]; [5]", "result": "113.5 ± 6.6", "unit": "g"},
      {"measurement": "Weight borne on right hind paw", "setting": "[3]; [6]", "result": "72.9 ± 6.3", "unit": "g"},
      {"measurement": "Weight borne on right hind paw", "setting": "[3]; [7]", "result": "40.4 ± 8.2", "unit": "g"},
      {"measurement": "melting point", "result": "157 to 158", "unit": "°C"}
    ]}
  ]
}
